Counter-ions that a name gives are not always drawn.
What was measured:
[1] = tested on: HH; test: Combination study, ATPLite 72 h, dose matrix (Synergy Score, CI50); type: cell-based; settings: combination with Compound 1
Protocol: The method is described as follows.
Additive effect is CI=1.0. […] Antagonistic effect is CI>1.0.
The Synergy Score is calculated as: […]

[2] = tested on: HBL-1; test: as above; settings: combination with Compound 1, 72 h
[3] = tested on: OCI-Ly3; test: as above; settings: combination with Compound 1; OCI-Ly3; 72 h
[4] = tested on: U-2932; test: as above; settings: combination with Compound 1, 72 h
[5] = tested on: TMD8; test: as above; settings: combination with Compound 1; TMD8; 72 h
[6] = tested on: OCI-Ly7; test: as above; settings: combination with Compound 1, 72 h
Protocol: (§1) Cells are thawed from a liquid nitrogen preserved state. Once cells have been expanded and divide at their expected doubling times, screening begins. Cells are seeded in growth media in either black 1536-well or 384-well tissue culture treated plates. Cells are then equilibrated in assay plates via centrifugation and placed in incubators attached to the Dosing Modules at 37° C. for 24 hours before treatment. […] These Tzero (To) plates are read using ultra-sensitive luminescence on Envision plate readers (Perkin Elmer). Treated assay plates are incubated with compound for 72 hours. After 72 hours, plates are developed for endpoint analysis using ATPLite. All data points are collected via automated processes, quality controlled and analyzed using Zalicus software.
The measure of effect in the experiment can be the inhibition of cellular response relative to the untreated level (vehicle alone). […] The inhibition ranges from 0% at the untreated level to 100% when T=0. Inhibition levels are negative for agents that actually increase levels.
(§2) Growth Inhibition (GI) is used as a measure of cell viability. […] A GI reading of 100% represents complete growth inhibition—T72 compound-treated and T0 vehicle signals are matched. […] A GI reading of 200% represents complete death of all cells in the culture well. Compounds reaching an activity plateau of GI 200% are considered cytotoxic. GI is calculated by applying the following test and equation:
(§3) Combination analysis data were collected in a 6×6 dose matrix. Synergy is calculated by comparing a combination's response to those of its single compound, against the drug-with-itself dose-additive reference model. Deviations from dose additivity may be assessed visually on an isobologram or numerically with a Combination Index (CI). […] Additive effect is CI=1.0. […] Antagonistic effect is CI>1.0.
(§4) To measure combination effects in excess of Loewe additivity, a scalar measure to characterize the strength of synergistic interaction termed the Synergy Score is devised. The Synergy Score is calculated as:
(§5) The fractional inhibition for each component agent and combination point in the matrix is calculated relative to the median of all vehicle-treated control wells. The Synergy Score equation integrates the experimentally-observed activity volume at each point in the matrix in excess of a model surface numerically derived from the activity of the component agents using the Loewe model for additivity. Additional terms in the Synergy Score equation (above) are used to normalize for various dilution factors used for individual agents and to allow for comparison of synergy scores across an entire experiment. The inclusion of positive inhibition gating or an Idata multiplier removes noise near the zero effect level, and biases results for synergistic interactions at that occur at high activity levels.
Loewe Volume (Loewe Vol) is used to assess the overall magnitude of the combination interaction in excess of the Loewe additivity model. Loewe Volume is particularly useful when distinguishing synergistic increases in a phenotypic activity (positive Loewe Volume) versus synergistic antagonisms (negative Loewe Volume). […] This model defines additivity as a non-synergistic combination interaction where the combination dose matrix surface should be indistinguishable from either drug crossed with itself. The calculation for Loewe additivity is:

[7] = tested on: SU-DHL-4-epst; test: as above; settings: combination with Compound 1, 72 h
[8] = tested on: DOHH-2; test: as above; settings: combination with Compound 1, 72 h
[9] = tested on: Farage; test: as above; settings: combination with Compound 1; Farage; 72 h
[10] = tested on: SU-DHL-10-epst; test: as above; settings: combination with Compound 1, 72 h
[11] = tested on: RL; test: as above; settings: combination with Compound 1, 72 h
[12] = tested on: KARPAS-422; test: as above; settings: combination with Compound 1, 72 h
[13] = tested on: WSU-NHL; test: as above; settings: combination with Compound 1, 72 h
[14] = tested on: KARPAS-299; test: as above; settings: combination with Compound 1
[15] = tested on: GRANTA-519; test: as above; settings: combination with Compound 1
[16] = tested on: Jeko-1; test: as above; settings: combination with Compound 1
[17] = tested on: Mino; test: as above; settings: combination with Compound 1
[18] = tested on: NCI-H929; test: as above; settings: combination with Compound 1
[19] = as above; settings: combination with Compound 1; OPM-2
[20] = tested on: OMP-2; test: as above; settings: combination with Compound 1; OPM-2
[21] = tested on: RPMI-8226; test: as above; settings: combination with Compound 1
Protocol: as §1
where T is treated cell count and V is untreated (vehicle) cell count (at 72 hours). I ranges from 0% (when T=V) to 100% (when T=0). […] The measure of effect in the experiment can be the inhibition of cellular response relative to the untreated level (vehicle alone). […] The inhibition ranges from 0% at the untreated level to 100% when T=0. Inhibition levels are negative for agents that actually increase levels. Other effect measures, such as an activity ratio r=T/V may be more appropriate for some assays. When activity ratios (e.g, fold increase over stimulated control) are being used, the effect can be measured using an induction 1=ln(T/V). With this definition, all effect expressions are the same as for inhibition.
as §2, §3, §4, §5
Loewe Volume (Loewe Vol) is used to assess the overall magnitude of the combination interaction in excess of the Loewe additivity model. Loewe Volume is particularly useful when distinguishing synergistic increases in a phenotypic activity (positive Loewe Volume) versus synergistic antagonisms (negative Loewe Volume). […] This model defines additivity as a non-synergistic combination interaction where the combination dose matrix surface should be indistinguishable from either drug crossed with itself.

COc1cccc2c1C(=O)c1c(O)c3c(c(O)c1C2=O)C[C@@](O)(C(=O)CO)C[C@@H]3O[C@H]1C[C@H](N)[C@H](O)[C@H](C)O1 [Doxorubicin HCl]
CI50 growth inhibition [1]: W (W=≥1) | CI50 inhibition [1]: T (T=0.5 to <0.7) | Synergy Score growth inhibition [1]: A3 (A3=>3) | Synergy Score inhibition [1]: A2 (A2=1 to <3) | CI50 growth inhibition [2]: S (S=0.01 to <0.5) | CI50 inhibition [2]: U (U=0.7 to <1) | Synergy Score growth inhibition [2]: A3 (A3=>3) | Synergy Score inhibition [2]: A1 (A1=0.0001 to <1) | CI50 growth inhibition [3]: U (U=0.7 to <1) | CI50 inhibition [3]: W (W=≥1) | Synergy Score growth inhibition [3]: A2 (A2=1 to <3) | Synergy Score inhibition [3]: A1 (A1=0.0001 to <1) | CI50 growth inhibition [4]: U (U=0.7 to <1) | CI50 inhibition [4]: W (W=≥1) | Synergy Score growth inhibition [4]: A2 (A2=1 to <3) | Synergy Score inhibition [4]: A1 (A1=0.0001 to <1) | CI50 growth inhibition [5]: T (T=0.5 to <0.7) | CI50 inhibition [5]: T (T=0.5 to <0.7) | Synergy Score growth inhibition [5]: A3 (A3=>3) | Synergy Score inhibition [5]: A2 (A2=1 to <3) | CI50 growth inhibition [6]: S (S=0.01 to <0.5) | CI50 inhibition [6]: S (S=0.01 to <0.5) | Synergy Score growth inhibition [6]: A3 (A3=>3) | Synergy Score inhibition [6]: A2 (A2=1 to <3) | CI50 growth inhibition [7]: U (U=0.7 to <1) | CI50 inhibition [7]: W (W=≥1) | Synergy Score growth inhibition [7]: A3 (A3=>3) | Synergy Score inhibition [7]: A2 (A2=1 to <3) | CI50 growth inhibition [8]: T (T=0.5 to <0.7) | CI50 inhibition [8]: T (T=0.5 to <0.7) | Synergy Score growth inhibition [8]: A3 (A3=>3) | Synergy Score inhibition [8]: A2 (A2=1 to <3) | CI50 growth inhibition [9]: U (U=0.7 to <1) | CI50 inhibition [9]: T (T=0.5 to <0.7) | Synergy Score growth inhibition [9]: A3 (A3=>3) | Synergy Score inhibition [9]: A1 (A1=0.0001 to <1) | CI50 growth inhibition [10]: T (T=0.5 to <0.7) | CI50 inhibition [10]: T (T=0.5 to <0.7) | Synergy Score growth inhibition [10]: A3 (A3=>3) | Synergy Score inhibition [10]: A2 (A2=1 to <3) | CI50 growth inhibition [11]: U (U=0.7 to <1) | CI50 inhibition [11]: W (W=≥1) | Synergy Score growth inhibition [11]: A2 (A2=1 to <3) | Synergy Score inhibition [11]: A1 (A1=0.0001 to <1) | CI50 growth inhibition [12]: W (W=≥1) | CI50 inhibition [12]: W (W=≥1) | Synergy Score growth inhibition [12]: A1 (A1=0.0001 to <1) | Synergy Score inhibition [12]: A1 (A1=0.0001 to <1) | CI50 growth inhibition [13]: T (T=0.5 to <0.7) | CI50 inhibition [13]: S (S=0.01 to <0.5) | Synergy Score growth inhibition [13]: A3 (A3=>3) | Synergy Score inhibition [13]: A2 (A2=1 to <3) | CI50 growth inhibition [14]: U (U=0.7 to <1) | CI50 inhibition [14]: U (U=0.7 to <1) | Synergy Score growth inhibition [14]: A2 (A2=1 to <3) | Synergy Score inhibition [14]: A1 (A1=0.0001 to <1) | CI50 growth inhibition [15]: S (S=0.01 to <0.5) | CI50 inhibition [15]: W (W=≥1) | Synergy Score growth inhibition [15]: A3 (A3=>3) | Synergy Score inhibition [15]: A1 (A1=0.0001 to <1) | CI50 growth inhibition [16]: T (T=0.5 to <0.7) | CI50 inhibition [16]: U (U=0.7 to <1) | Synergy Score growth inhibition [16]: A3 (A3=>3) | Synergy Score inhibition [16]: A1 (A1=0.0001 to <1) | CI50 growth inhibition [17]: T (T=0.5 to <0.7) | CI50 inhibition [17]: T (T=0.5 to <0.7) | Synergy Score growth inhibition [17]: A3 (A3=>3) | Synergy Score inhibition [17]: A2 (A2=1 to <3) | CI50 growth inhibition [18]: U (U=0.7 to <1) | CI50 inhibition [18]: U (U=0.7 to <1) | Synergy Score growth inhibition [18]: A3 (A3=>3) | Synergy Score inhibition [18]: A1 (A1=0.0001 to <1) | CI50 growth inhibition [19]: W (W=≥1) | CI50 inhibition [20]: W (W=≥1) | Synergy Score growth inhibition [20]: A2 (A2=1 to <3) | Synergy Score inhibition [20]: A1 (A1=0.0001 to <1) | CI50 growth inhibition [21]: U (U=0.7 to <1) | CI50 inhibition [21]: W (W=≥1) | Synergy Score growth inhibition [21]: A3 (A3=>3) | Synergy Score inhibition [21]: A2 (A2=1 to <3)

CS(=O)(=O)N1CCN(Cc2cc3nc(-c4cccc5[nH]ncc45)nc(N4CCOCC4)c3s2)CC1 [GDC-0941, 2-(1H-indazol-4-yl)-6-((4-(methylsulfonyl)piperazin-1-yl)methyl)-4-morpholinothieno[3,2-d]pyrimidine]
CI50 growth inhibition [1]: W (W=≥1) | CI50 inhibition [1]: W (W=≥1) | Synergy Score growth inhibition [1]: A1 (A1=0.0001 to <1) | Synergy Score inhibition [1]: A1 (A1=0.0001 to <1) | CI50 growth inhibition [2]: U (U=0.7 to <1) | CI50 inhibition [2]: W (W=≥1) | Synergy Score growth inhibition [2]: A2 (A2=1 to <3) | Synergy Score inhibition [2]: A1 (A1=0.0001 to <1) | CI50 growth inhibition [3]: U (U=0.7 to <1) | CI50 inhibition [3]: W (W=≥1) | Synergy Score growth inhibition [3]: A1 (A1=0.0001 to <1) | Synergy Score inhibition [3]: A1 (A1=0.0001 to <1) | CI50 growth inhibition [4]: T (T=0.5 to <0.7) | CI50 inhibition [4]: W (W=≥1) | Synergy Score growth inhibition [4]: A1 (A1=0.0001 to <1) | Synergy Score inhibition [4]: A1 (A1=0.0001 to <1) | CI50 growth inhibition [5]: U (U=0.7 to <1) | CI50 inhibition [5]: W (W=≥1) | Synergy Score growth inhibition [5]: A3 (A3=>3) | Synergy Score inhibition [5]: A2 (A2=1 to <3) | CI50 growth inhibition [6]: U (U=0.7 to <1) | CI50 inhibition [6]: W (W=≥1) | Synergy Score growth inhibition [6]: A1 (A1=0.0001 to <1) | Synergy Score inhibition [6]: A1 (A1=0.0001 to <1) | CI50 growth inhibition [7]: T (T=0.5 to <0.7) | CI50 inhibition [7]: T (T=0.5 to <0.7) | Synergy Score growth inhibition [7]: A3 (A3=>3) | Synergy Score inhibition [7]: A2 (A2=1 to <3) | CI50 growth inhibition [8]: T (T=0.5 to <0.7) | CI50 inhibition [8]: T (T=0.5 to <0.7) | Synergy Score growth inhibition [8]: A3 (A3=>3) | Synergy Score inhibition [8]: A2 (A2=1 to <3) | CI50 growth inhibition [9]: T (T=0.5 to <0.7) | CI50 inhibition [9]: S (S=0.01 to <0.5) | Synergy Score growth inhibition [9]: A3 (A3=>3) | Synergy Score inhibition [9]: A2 (A2=1 to <3) | CI50 growth inhibition [10]: S (S=0.01 to <0.5) | CI50 inhibition [10]: T (T=0.5 to <0.7) | Synergy Score growth inhibition [10]: A3 (A3=>3) | Synergy Score inhibition [10]: A2 (A2=1 to <3) | CI50 growth inhibition [11]: U (U=0.7 to <1) | CI50 inhibition [11]: U (U=0.7 to <1) | Synergy Score growth inhibition [11]: A2 (A2=1 to <3) | Synergy Score inhibition [11]: A2 (A2=1 to <3) | CI50 growth inhibition [12]: T (T=0.5 to <0.7) | CI50 inhibition [12]: U (U=0.7 to <1) | Synergy Score growth inhibition [12]: A1 (A1=0.0001 to <1) | Synergy Score inhibition [12]: A1 (A1=0.0001 to <1) | CI50 growth inhibition [13]: U (U=0.7 to <1) | CI50 inhibition [13]: T (T=0.5 to <0.7) | Synergy Score growth inhibition [13]: A3 (A3=>3) | Synergy Score inhibition [13]: A2 (A2=1 to <3) | CI50 growth inhibition [14]: W (W=≥1) | Synergy Score growth inhibition [14]: A1 (A1=0.0001 to <1) | Synergy Score inhibition [14]: A1 (A1=0.0001 to <1) | CI50 growth inhibition [15]: S (S=0.01 to <0.5) | CI50 inhibition [15]: U (U=0.7 to <1) | Synergy Score growth inhibition [15]: A2 (A2=1 to <3) | Synergy Score inhibition [15]: A1 (A1=0.0001 to <1) | CI50 growth inhibition [16]: S (S=0.01 to <0.5) | CI50 inhibition [16]: S (S=0.01 to <0.5) | Synergy Score growth inhibition [16]: A1 (A1=0.0001 to <1) | Synergy Score inhibition [16]: A1 (A1=0.0001 to <1) | CI50 growth inhibition [17]: S (S=0.01 to <0.5) | CI50 inhibition [17]: T (T=0.5 to <0.7) | Synergy Score growth inhibition [17]: A2 (A2=1 to <3) | Synergy Score inhibition [17]: A2 (A2=1 to <3) | CI50 growth inhibition [18]: T (T=0.5 to <0.7) | CI50 inhibition [18]: T (T=0.5 to <0.7) | Synergy Score growth inhibition [18]: A3 (A3=>3) | Synergy Score inhibition [18]: A2 (A2=1 to <3) | CI50 growth inhibition [19]: U (U=0.7 to <1) | CI50 inhibition [20]: W (W=≥1) | Synergy Score growth inhibition [20]: A3 (A3=>3) | Synergy Score inhibition [20]: A1 (A1=0.0001 to <1) | CI50 growth inhibition [21]: U (U=0.7 to <1) | CI50 inhibition [21]: W (W=≥1) | Synergy Score growth inhibition [21]: A2 (A2=1 to <3) | Synergy Score inhibition [21]: A1 (A1=0.0001 to <1)
